From ChEMBL document CHEMBL1681651, “A broad spectrum anticancer nucleoside with selective toxicity against human colon cells in vitro” (2011)

Key:
Assay type in all cases: functional
LOX IMVI [1] = assay: Growth inhibition of human LOXIMVI cells assessed as cell growth at 0.1 uM after 48 hrs by SRB assay; conditions: read-out: Activity
NCI/ADR-RES [2] = assay: Growth inhibition of human NCI/ADR-RES cells assessed as cell growth at 0.1 uM after 48 hrs by SRB assay; conditions: read-out: Activity
LOX IMVI [3] = assay: Growth inhibition of human LOXIMVI cells assessed as cell growth at 10 uM after 48 hrs by SRB assay; conditions: read-out: Activity
SF-295 [4] = assay: Growth inhibition of human SF295 cells assessed as cell growth at 100 uM after 48 hrs by SRB assay; conditions: SF-295, 48 h, read-out: Activity
MDA-MB-435 = assay: Growth inhibition of human MDA-MB-435 cells assessed as cell growth at 1 uM after 48 hrs by SRB assay; conditions: MDA-MB-435, 48 h, read-out: Activity
A498 = assay: Growth inhibition of human A498 cells assessed as cell growth at 1 mM after 48 hrs by SRB assay; conditions: A498, 48 h, read-out: Activity
OVCAR-5 = assay: Growth inhibition of human OVCAR5 cells assessed as cell growth at 100 uM after 48 hrs by SRB assay; conditions: OVCAR-5, 48 h, read-out: Activity
BT-549 = assay: Growth inhibition of human BT549 cells after 48 hrs by […] growth inhibition assay; conditions: BT-549, 48 h
KM12 [5] = assay: Growth inhibition of human KM12 cells assessed as cell growth at 10 uM after 48 hrs by SRB assay; conditions: KM12, 48 h, read-out: Activity
SF-268 = assay: Growth inhibition of human SF268 cells assessed as cell growth at 100 uM after 48 hrs by SRB assay; conditions: SF-268, 48 h, read-out: Activity
EKVX = assay: Growth inhibition of human EKVX cells assessed as cell growth at 100 uM after 48 hrs by SRB assay; conditions: read-out: Activity
UACC-62 = assay: Growth inhibition of human UACC62 cells assessed as cell growth at 0.1 uM after 48 hrs by SRB assay; conditions: UACC-62, 48 h, read-out: Activity
KM12 [6] = assay: Growth inhibition of human KM12 cells after 48 hrs by […] growth inhibition assay; conditions: KM12, 48 h
COLO 205 = assay: Growth inhibition of human COLO205 cells assessed as cell growth at 10 uM after 48 hrs by SRB assay; conditions: COLO 205, 48 h, read-out: Activity
SK-MEL-5 [7] = assay: Growth inhibition of human SK-MEL-5 cells assessed as cell growth at 100 uM after 48 hrs by SRB assay; conditions: SK-MEL-5, 48 h, read-out: Activity
SK-MEL-5 [8] = assay: Growth inhibition of human SK-MEL-5 cells after 48 hrs by […] growth inhibition assay; conditions: SK-MEL-5, 48 h
NCI-H322M = assay: Growth inhibition of human NCI-H322M cells assessed as cell growth at 1 mM after 48 hrs by SRB assay; conditions: read-out: Activity
ACHN = assay: Growth inhibition of human ACHN cells assessed as cell growth at 1 mM after 48 hrs by SRB assay; conditions: read-out: Activity
A549 = assay: Growth inhibition of human A549 cells assessed as cell growth at 1 uM after 48 hrs by SRB assay; conditions: A549, 48 h, read-out: Activity
MDA-MB-468 = assay: Growth inhibition of human MDA-MB-468 cells after 48 hrs by […] growth inhibition assay; conditions: MDA-MB-468, 48 h
IGROV-1 = assay: Growth inhibition of human IGROV1 cells assessed as cell growth at 1 uM after 48 hrs by SRB assay; conditions: IGROV-1, 48 h, read-out: Activity
NCI/ADR-RES [9] = assay: Growth inhibition of human NCI/ADR-RES cells assessed as cell growth at 100 uM after 48 hrs by SRB assay; conditions: read-out: Activity
SK-MEL-28 = assay: Growth inhibition of human SK-MEL-28 cells after 48 hrs by […] growth inhibition assay; conditions: SK-MEL-28, 48 h, read-out: LC50 (the source's name)
SN12C = assay: Growth inhibition of human SN12C cells assessed as cell growth at 1 uM after 48 hrs by SRB assay; conditions: read-out: Activity
SNB-19 = assay: Growth inhibition of human SNB19 cells assessed as cell growth at 1 uM after 48 hrs by SRB assay; conditions: SNB-19, 48 h, read-out: Activity
HCT-116 [10] = assay: Growth inhibition of human HCT116 cells after 48 hrs by […] growth inhibition assay; conditions: HCT-116, 48 h
SF-295 [11] = assay: Growth inhibition of human SF295 cells assessed as cell growth at 1 uM after 48 hrs by SRB assay; conditions: SF-295, 48 h, read-out: Activity
HCT-116 [12] = assay: Growth inhibition of human HCT116 cells assessed as cell growth at 10 uM after 48 hrs by SRB assay; conditions: HCT-116, 48 h, read-out: Activity
OVCAR-4 = assay: Growth inhibition of human OVCAR4 cells assessed as cell growth at 1 uM after 48 hrs by SRB assay; conditions: OVCAR-4, 48 h, read-out: Activity
PC-3 = assay: Growth inhibition of human PC3 cells after 48 hrs by […] growth inhibition assay; conditions: PC-3, 48 h
MDA-MB-231 = assay: Growth inhibition of human MDA-MB-231 cells assessed as cell growth at 1 uM after 48 hrs by SRB assay; conditions: MDA-MB-231, 48 h, read-out: Activity
SF-295 [13] = assay: Growth inhibition of human SF295 cells assessed as cell growth at 0.1 uM after 48 hrs by SRB assay; conditions: SF-295, 48 h, read-out: Activity
HL-60(TB) = assay: Growth inhibition of human HL-60(TB) cells assessed as cell growth at 10 uM after 48 hrs by SRB assay; conditions: HL-60, 48 h, read-out: Activity
[14] = read-out: LC50 (the source's name)
[15] = read-out: pLC50 (the source's name) (converted)

Q: With `CNC(=O)NC[C@H]1O[C@@H](n2cnc3c(NC(=O)Nc4ccccc4)ncnc32)[C@H](O[Si](C)(C)C(C)(C)C)[C@@H]1O[Si](C)(C)C(C)(C)C` as the compound, how does the growth at 0.1 µM (LOX IMVI [1]) read?
A: 102%

Q: What about the growth at 0.1 µM (NCI/ADR-RES [2]) of the same compound?
A: 106%

Q: What about the growth at 10 µM (LOX IMVI [3]) of the same compound?
A: 98%

Q: And the growth at 100 µM (SF-295 [4])?
A: 7%

Q: And the growth at 1 µM (MDA-MB-435)?
A: 102%

Q: And the growth at 1000 µM (A498)?
A: -76%

Q: And the growth at 100 µM (OVCAR-5)?
A: 29%

Q: And the GI50 (BT-549; read-out: GI50)?
A: 2.94 µM

Q: What about the CC50 (BT-549; [14]) of the same compound?
A: > 100 µM

Q: And the TGI (BT-549; read-out: TGI)?
A: 8.18 µM

Q: And the GI50 (BT-549; read-out: pGI50 (converted))?
A: 2.95 µM

Q: What about the CC50 (BT-549; [15]) of the same compound?
A: > 100 µM

Q: What about the TGI (BT-549; read-out: pTGI (converted)) of the same compound?
A: 8.13 µM

Q: What about the growth at 10 µM (KM12 [5]) of the same compound?
A: 107%

Q: And the growth at 100 µM (SF-268)?
A: 8%

Q: And the growth at 100 µM (EKVX)?
A: 9%

Q: What about the growth at 0.1 µM (UACC-62) of the same compound?
A: 102%

Q: What about the GI50 (KM12 [6]; read-out: GI50) of the same compound?
A: 2.13 µM

Q: What about the CC50 (KM12 [6]; [14]) of the same compound?
A: 8.05 µM

Q: And the TGI (KM12 [6]; read-out: TGI)?
A: 4.14 µM

Q: What about the GI50 (KM12 [6]; read-out: pGI50 (converted)) of the same compound?
A: 2.14 µM

Q: What about the CC50 (KM12 [6]; [15]) of the same compound?
A: 8.13 µM

Q: And the TGI (KM12 [6]; read-out: pTGI (converted))?
A: 4.17 µM

Q: And the growth at 10 µM (COLO 205)?
A: 105%

Q: And the growth at 100 µM (SK-MEL-5 [7])?
A: -42%

Q: And the GI50 (SK-MEL-5 [8]; read-out: GI50)?
A: 1.98 µM

Q: What about the CC50 (SK-MEL-5 [8]; [14]) of the same compound?
A: 13.6 µM

Q: What about the TGI (SK-MEL-5 [8]; read-out: TGI) of the same compound?
A: 4.75 µM

Q: What about the GI50 (SK-MEL-5 [8]; read-out: pGI50 (converted)) of the same compound?
A: 2 µM

Q: And the CC50 (SK-MEL-5 [8]; [15])?
A: 13.5 µM

Q: And the TGI (SK-MEL-5 [8]; read-out: pTGI (converted))?
A: 4.79 µM

Q: And the growth at 1000 µM (NCI-H322M)?
A: 21%

Q: What about the growth at 1000 µM (ACHN) of the same compound?
A: 2%

Q: What about the growth at 1 µM (A549) of the same compound?
A: 98%

Q: And the GI50 (MDA-MB-468; read-out: GI50)?
A: 3.35 µM

Q: What about the CC50 (MDA-MB-468; [14]) of the same compound?
A: > 100 µM

Q: What about the TGI (MDA-MB-468; read-out: TGI) of the same compound?
A: 13.9 µM

Q: What about the GI50 (MDA-MB-468; read-out: pGI50 (converted)) of the same compound?
A: 3.39 µM

Q: What about the CC50 (MDA-MB-468; [15]) of the same compound?
A: > 100 µM

Q: What about the TGI (MDA-MB-468; read-out: pTGI (converted)) of the same compound?
A: 13.8 µM

Q: And the growth at 1 µM (IGROV-1)?
A: 99%

Q: And the growth at 100 µM (NCI/ADR-RES [9])?
A: 10%

Q: And the CC50 (SK-MEL-28)?
A: 28.3 µM

Q: And the growth at 1 µM (SN12C)?
A: 100%

Q: And the growth at 1 µM (SNB-19)?
A: 100%

Q: What about the GI50 (HCT-116 [10]; read-out: GI50) of the same compound?
A: 2.11 µM

Q: And the CC50 (HCT-116 [10]; [14])?
A: 8.8 µM

Q: What about the TGI (HCT-116 [10]; read-out: TGI) of the same compound?
A: 4.31 µM

Q: What about the GI50 (HCT-116 [10]; read-out: pGI50 (converted)) of the same compound?
A: 2.09 µM

Q: And the CC50 (HCT-116 [10]; [15])?
A: 8.71 µM

Q: What about the TGI (HCT-116 [10]; read-out: pTGI (converted)) of the same compound?
A: 4.27 µM

Q: And the growth at 1 µM (SF-295 [11])?
A: 107%

Q: And the growth at 10 µM (HCT-116 [12])?
A: 102%

Q: What about the growth at 1 µM (OVCAR-4) of the same compound?
A: 108%

Q: What about the GI50 (PC-3; read-out: GI50) of the same compound?
A: 2.69 µM

Q: And the CC50 (PC-3; [14])?
A: > 100 µM

Q: And the TGI (PC-3; read-out: TGI)?
A: > 1 µM

Q: What about the GI50 (PC-3; read-out: pGI50 (converted)) of the same compound?
A: 2.69 µM

Q: What about the CC50 (PC-3; [15]) of the same compound?
A: > 100 µM

Q: What about the TGI (PC-3; read-out: pTGI (converted)) of the same compound?
A: > 100 µM

Q: And the growth at 1 µM (MDA-MB-231)?
A: 109%

Q: And the growth at 0.1 µM (SF-295 [13])?
A: 103%

Q: For `CNC(=O)OC[C@H]1O[C@@H](n2cnc3c(NC(=O)Nc4ccccc4)ncnc32)[C@H](O[Si](C)(C)C(C)(C)C)[C@@H]1O[Si](C)(C)C(C)(C)C`, which growth at 10 µM (LOX IMVI [3]) is on record?
A: 87.4%

Q: What about the growth at 10 µM (HL-60(TB)) of the same compound?
A: 113%

Q: And the growth at 10 µM (KM12 [5])?
A: 110%

Q: And the growth at 10 µM (COLO 205)?
A: 106%

Q: What about the growth at 10 µM (HCT-116 [12]) of the same compound?
A: 66.7%
